Laboratory results: patent US5147652A, “Autobiotics and their use in eliminating nonself cells in vivo” (priority 1990, dated 1992)
Values belong to the molecule of their own block, whether it stands above or below them.

How the values were obtained:
[1] = in vivo half life of C14-radiolabelled free and latentiated methylglyoxal; details: free; injected into mice
Method: With free alpha-ketoaldehydes, the half-life is about 30 minutes. […] Latentiation also protects host cells from the toxic effects of alpha-ketoaldehydes.

Sarcoma-180 cells = assay: Radiation enhancement in mice carrying ascitic Sarcoma-180 cells; format: in vivo
Excerpt: Ten minutes after the injection the mice were irradiated with a gamma source (612 RAD equivalent of 400 R total body radiation; calculated lethaldose:LD-50/30 days). The treatment was repeated 3 times 4 days apart. […] One day after the last radiation, the animals were sacrificed, the ascitic fluid was collected and the malignant cells were counted.

Aspergillus niger = assay: Inhibition of proliferation of molds, disk assay; format: cell-based; details: 40 hrs
Method: (§1) (1) Stock solutions in 26% 2 popanediol:
(§2) (3) Assay: The microorganisms were grown in Saburand's dextrose agar (Scott) at 35 C for stock cultures. For assay the spores were plated on Mueller-Hilton agar plates (7cm dia). The test compounds were applied to the plates on sensi disks (6 mm dia, Whatmann #17 paper) in volumes of 10, 20, 30, 40 microliter made up to 40 plating volume of microliter with the solvent. The plates were incubated at room temperature and in the dark for 40 hrs. The diameter of the inhibition ring around the sensi disks were measured.

Penicillum notatum = assay: Inhibition of proliferation of molds, disk assay; format: cell-based; details: 40 hrs
Method: as §1, §2

Candida albicans = assay: Effect on proliferation of Candida albicans, disk on agar surface (A); format: cell-based; details: 24 hours (*)
Method: Stock solutions of the following test compounds were dissolved in physiological saline. However DOV was dissolved in water.
C. albicans isolated from clinical specimens were density grown in SubbaRow's broth at 35 C. A loopful of yeast suspension was evenly spread on the surface of Muller-Hilton agar plates (7cm diameter) with a sterile cotton applicator and incubated for 12 hours. The test compounds were placed on the surface of the sensidisks (Whatmann No. 17 paper, 6mm diameter) in a volume of 5, 10, 20, and 50 μliter of stock solutions and made up a final volume of 50 μliter with saline. The plates then were placed and kept at 37 C for 24 hours (*) and 48 hours (**) when the diameters of the inhibitory rings were recorded. Photographs were also taken of plates.

C. albicans = assay: Inhibition of C. albicans, yeast mixed in agar (B); format: cell-based; details: 30 μl test, 24 hrs incubation; mean of twenty assays
Method: Stock cultured C. albicans is used. The yeast isolated from clinical specimens was stock cultured (subcultured) on semisolid trypsoy agar plates. […] Thus, from the subculture(s), transfers were made every 48 hrs into SRB to keep the experimental strain available for assays. From the 24-48 hrs SRB cultures a loopful of turbid solutions was transferred and spread on either (a) trypsoy agar plates or (b) EBM agar plates which were fortified with horse and calf serum and incubated at 36 C for 24-48 hrs. […] Plate (a) was selected for growth inhibition assay(s) with ketoaldehydes.
One milliliter of SRB culture (24-48 hrs growth) was mixed with 10 ml trypsoy agar, warmed to 38 C and rapidly poured into sterile Petri dishes (7cm), spread evenly and allowed to solidify. The selected test compounds (in 30 μl total volume, as above) were placed in sensidisks (6mm dia, Whatman #17) on the infected agar surface. The plates were incubated for 24 hrs at 37 C. The extent of inhibition, clear zones around the sensi disks, were measured and recorded. In some cases contact photorecords were also made with the plates. (The dark zones on the photos are the inhibition (no growth) areas of C. albicans.
These assays were aimed at finding the variations of inhibition due to (i) the variable amount of yeast in (ii) a three dimensional area of the plates. Each result is the statistical mean of twenty assays on different batches of C. albicans.

[2] = tested on: blood coagulation (citrated human blood plasma); assay: Blood coagulation (i), ketoaldehyde kept 1-2 seconds before plasma added; format: biochemical; details: 1-2 seconds contact; for d % (clotting activity): control 22; for coagulation time: control 24; for clot: control hard
Method: (§3) 200 microliter thromboplastin (Ortho) was mixed with 10 microliter ketoaldehyde (KA) stock solution. Then 100 microliter citrated human blood plasma was added and the clot formation time (in seconds) was measured on a Fibrionometer. The effect of the ketoaldehyde on coagulation time was evaluated by comparing the clotting time of the KA treated plasma with the untreated control. The result (d%) was read from a special chart expressing the clotting activity.
(§4) All measurements were run in triplicates. The assay was run at 37 C (waterbath) in special tubes and all solutions were prewarmed.
(i) The plasminogen and ketoaldehyde were kept for
1-2 seconds before the blood plasma was added.

[3] = tested on: blood coagulation (plasma from a patient with prothrombin); assay: Blood coagulation (ii)(a), plasma from a patient with prothrombin; format: biochemical, human
Method: as §3, §4
(§5) (ii) The plasminogen and KA were incubated for
(§6) varying time before the blood plasma was added.
(a) With plasma from a patient with prothrombin
(clotting time 26 sec d % = 19. "Normal" (healthy)

[4] = tested on: blood coagulation (normal plasma); assay: Blood coagulation (ii)(b), normal plasma; format: biochemical, human
Method: as §3, §4, §5, §6
(b) with normal plasma: clotting time = 11. 7 sec

[5] = tested on: blood coagulation (whole blood); assay: Blood coagulation (c), trial assay with whole blood; format: biochemical; details: control 14.9 sec
Method: as §3, §4
(c) A trial assay where blood plasma was replaced

[6] = format: physicochemical
cell division = details: Stein and co-workers; cited from earlier work

SMILES: CC(=O)C=O [MG, methylglyoxal]
half life [1]: about 30 minutes | P % (promotion) (Sarcoma-180 cells; MG alone, without radiation): 4.7% | TC % (Sarcoma-180 cells; MG alone, without radiation): 104.7% | TC % (Sarcoma-180 cells; RAD + MG, 120 mg/kg, 612 RAD, 3 times): 7.7% | diameter of inhibition ring (Aspergillus niger; 30 microliter): 7 | diameter of inhibition ring (Aspergillus niger; 40 microliter): 9 | diameter of inhibition ring (Penicillum notatum; 30 microliter): 8 | diameter of inhibition ring (Penicillum notatum; 40 microliter): 10 | inhibition diameters (Candida albicans; 20 μliter): 8 mm | inhibition diameters (Candida albicans; 50 μliter): 10 mm | inhibition diameters (C. albicans): 6.0 mm | d % (clotting activity) [2]: 20% | coagulation time [2]: 25 s | clot [2]: hard | clotting time ([3]; incubation time 30 seconds): 39 s | d% ([3]; incubation time 30 seconds): 15% | clotting time ([3]; incubation time 60 seconds): 32 s | d% ([3]; incubation time 60 seconds): 13% | clotting time ([3]; incubation time 130 seconds): 39 s | d% ([3]; incubation time 130 seconds): < 10% | clotting time ([3]; incubation time 190 seconds): 41 s | clotting time ([3]; incubation time 300 seconds): 91.8 s | clotting time ([4]; incubation time 5 seconds): 12.9 s | d% ([4]; incubation time 5 seconds): 96% | clotting time ([4]; incubation time 60 seconds): 14.9 s | d% ([4]; incubation time 60 seconds): 55% | clotting time ([4]; incubation time 129 seconds): 15.4 s | d% ([4]; incubation time 129 seconds): 53% | clotting time ([4]; incubation time 240 seconds): 19.0 s | d% ([4]; incubation time 240 seconds): 35% | clotting time ([4]; incubation time 360 seconds): 26.9 s | d% ([4]; incubation time 360 seconds): 26% | clotting time ([4]; incubation time 600 seconds): > 167.0 s | clotting time ([5]; incubation time 70): 16.5 s | clotting time ([5]; incubation time 150): 19.4 s | clotting time ([5]; incubation time 180): 20.0 s | clotting time ([5]; incubation time 240): 22.0 s | clotting time ([5]; incubation time 360): 24.0 s

solubility limit of stock solution ([6]; physiological saline stock): limit solubility | solubility in water ([6]; water): sparingly soluble in water
SMILES: O=CC(=O)c1ccccc1 [PhG, phenylglyoxal]
solubility in organic solvents ([6]; chloroform, methanol, ethanol): soluble in chloroform methanol and ethanol | inhibition diameters (Candida albicans; 20 μliter): 5 mm | inhibition diameters (Candida albicans; 50 μliter): 8 mm | d % (clotting activity) [2]: 11% | coagulation time [2]: 35 s | clot [2]: hard | clotting time ([4]; incubation time 120 seconds): 19.5 s | d% ([4]; incubation time 120 seconds): 33% | effect of reaction with arginine-rich surface proteins on cells (cell division): cells that can not divide, and which become leaky and die
